Read-outs that look alike come from different tables or passages of the source.
How the values were obtained:
[1] = target: T1, α7-HI (Rattus norvegicus, UniProt Q05941); experiment: FLIPR Ca2+-sensitive fluorescence assay, α7-HI (agonist activity) in HEK 293 cells; format: cell-based
T1 construct: expressed in transfected cells
Method: I) α7 Nicotinic Acetycholine Receptor Binding. Membranes were prepared for binding using HEK293 cells stably expressing the rat α7 nicotinic acetycholine receptor (rat α7 nAChR). Cells were homogenized at 4° C. in hypotonic lysis buffer consisting of 10 mM Tris (pH 7.4), 5 mM EDTA and protease inhibitors and centrifuged at 32000×g for 20 minutes. The pellet was washed once in membrane wash buffer consisting of 50 mM Tris (pH 7.4), 1 mM EDTA and protease inhibitors and centrifuged at 32000×g for 20 minutes. This pellet was then resuspended in assay buffer consisting 50 mM KH2PO4 (pH 7.4 at 25° C.), 1 mM EDTA, 0.005% Triton-X 100 and 0.1% (v/v) Sigma Protease Inhibitor Cocktail. Aliquots were then frozen in dry ice/ethanol and kept at −80° C. until the day of the assay. II) A Ca^2+-Sensitive, Fluorescence-Based Assay α-7 for Nicotinic Acetylcholine Receptor Channel Function in Mammalian Cells (“FLIPR”). Summary: Lead compounds are evaluated for agonist activity at α-7, α3β4, α4αβ2, and α1β1δ1ε sub-types of nicotinic ACh receptor ion channels expressed in mammalian HEK 293 cells. Agonist potency and efficacy values are determined from kinetic fluorescence Ca^2+ influx measurements made using a 384 well FLIPR (Fluorescence Image Plate Reader). […] In this assay, channel expressing HEK cell lines seeded in 384 well assay plates are loaded with a membrane permeant fluorescent Ca^2+ indicator dye, whose 510 nm green emission signal increases in response to elevation of intracellular Ca^2+ concentration. The basal fluorescence from the cells is monitored in real time, followed by the acute addition of test compounds.
(§1) Materials and Methods: Reagents: The acetomethoxy (AM) ester of the Ca^2+ indicator dye Fluo-4 was obtained from InVitrogen, (Carlsbad, Calif.). Acetylcholine and all buffer constituents were purchased from Sigma Chemical Company, St. Louis, Mo. G418 and Minimal Essential Medium were purchased from InVitrogen Life Technologies, Carlsbad, Calif. Fetal bovine serum was purchased from (InVitrogen, Carlsbad, Calif.).
(§2) Cell Culture: HEK-293 cells were grown in Minimal Essential Medium containing 10% (v/v) fetal bovine serum at 37° C. in a 5% CO2 incubator. HEK-293 cells stably expressing the ion channels were grown in the same medium with the addition of 500 μg/ml G418.
Ca^2+ flux assays of Ca^2+ channels expressed in HEK-293 cells: HEK-293 cells expressing the ion channels of interest were plated in 384 well, black-walled, clear-bottomed, poly-D-lysine coated plates at a density of ˜20,000 cells/well in 20 μl of Minimal Essential Medium containing 10% (v/v) fetal bovine serum and incubated for 2 days at 29° C. in a 5% CO2 incubator. Prior to assay, cells were loaded with the Fluo-4 AM ester. […] Dye loading was allowed to proceed for 90 minutes at room temperature at which time the dye loading solution was removed and replaced with 40 μl/well of Hanks buffer. Cells loaded with dye were loaded onto a FLIPR384 (Molecular Devices, Sunnyvale, Calif.). Fluo-4 dye was excited using the 488 nm line of an argon laser. Emission was filtered using a 540+/−30 nm bandpass filter. For evaluation of the effects of test compounds using the Ca^2+ flux assay, compounds to be tested were provided in assay ready plates. For nicotinic receptor ion channel expressing cells, the assay was initiated by the addition of 20 μl/well of Hanks buffer containing test compounds. For all assays, data were collected at 1 Hz for 10 seconds (baseline), at which time the compound containing stimulus buffers are added, and further measurements collected at 0.33 Hz for 3 min.
Data Analysis: The statistical robustness of the nicotinic receptor Ca^2+ flux assays is determined from blanks and totals wells. […] The raw fluorescence units data files generated on the FLIPR plate reader are automatically exported and processed by in-house data analysis tools.

[2] = target: T2, α-7 nicotinic ACh receptor ion channel (Rattus norvegicus, UniProt Q05941); experiment: FLIPR Ca2+-sensitive fluorescence assay of α7 nicotinic acetylcholine receptor channel function (agonist activity) in HEK 293 cells; format: cell-based; settings: Ca2+ flux, HEK-293 cells expressing the channel
T2 construct: expressed in transfected cells
T2 sequence (Q05941 23-502): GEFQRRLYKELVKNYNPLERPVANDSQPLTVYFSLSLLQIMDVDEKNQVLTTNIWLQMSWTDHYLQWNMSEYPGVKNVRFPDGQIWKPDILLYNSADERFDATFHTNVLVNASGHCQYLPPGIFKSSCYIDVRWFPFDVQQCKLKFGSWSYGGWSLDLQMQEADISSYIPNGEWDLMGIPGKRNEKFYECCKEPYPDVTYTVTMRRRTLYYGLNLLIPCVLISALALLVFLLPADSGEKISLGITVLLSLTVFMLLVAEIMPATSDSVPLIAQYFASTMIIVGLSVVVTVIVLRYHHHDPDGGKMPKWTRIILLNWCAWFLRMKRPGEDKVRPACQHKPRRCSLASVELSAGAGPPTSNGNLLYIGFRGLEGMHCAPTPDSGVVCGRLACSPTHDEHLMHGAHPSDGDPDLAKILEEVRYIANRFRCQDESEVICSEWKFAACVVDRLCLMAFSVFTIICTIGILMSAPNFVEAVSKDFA
Method: I) α7 Nicotinic Acetycholine Receptor Binding. Membranes were prepared for binding using HEK293 cells stably expressing the rat α7 nicotinic acetycholine receptor (rat α7 nAChR). Cells were homogenized at 4° C. in hypotonic lysis buffer consisting of 10 mM Tris (pH 7.4), 5 mM EDTA and protease inhibitors and centrifuged at 32000×g for 20 minutes. The pellet was washed once in membrane wash buffer consisting of 50 mM Tris (pH 7.4), 1 mM EDTA and protease inhibitors and centrifuged at 32000×g for 20 minutes. This pellet was then resuspended in assay buffer consisting 50 mM KH2PO4 (pH 7.4 at 25° C.), 1 mM EDTA, 0.005% Triton-X 100 and 0.1% (v/v) Sigma Protease Inhibitor Cocktail. Aliquots were then frozen in dry ice/ethanol and kept at −80° C. until the day of the assay. II) A Ca^2+-Sensitive, Fluorescence-Based Assay α-7 for Nicotinic Acetylcholine Receptor Channel Function in Mammalian Cells (“FLIPR”). Summary: Lead compounds are evaluated for agonist activity at α-7, α3β4, α4αβ2, and α1β1δ1ε sub-types of nicotinic ACh receptor ion channels expressed in mammalian HEK 293 cells. Agonist potency and efficacy values are determined from kinetic fluorescence Ca^2+ influx measurements made using a 384 well FLIPR (Fluorescence Image Plate Reader). The utility of fluorescent indicators for measuring changes in intracellular divalent cation concentrations, particularly Ca^2+, for drug discovery endeavors is well documented (Rudiger, R., et al., Nature Reviews, 2003, 4:579-586; Gonzalez J. E., et al., Receptors and Channels, 2002, 8:283-295). In this assay, channel expressing HEK cell lines seeded in 384 well assay plates are loaded with a membrane permeant fluorescent Ca^2+ indicator dye, whose 510 nm green emission signal increases in response to elevation of intracellular Ca^2+ concentration. The basal fluorescence from the cells is monitored in real time, followed by the acute addition of test compounds. If the compound is an agonist at any of the non-selective cation channels, the latter open and allow the movement of extracellular Ca^2+ ions into the cell cytoplasm, where they bind to the Ca^2+ indicator dye, and produce an increase in fluorescence output signal, which is detected by a cooled CCD imaging camera.
as §1, §2
Ca^2+ flux assays of Ca^2+ channels expressed in HEK-293 cells: HEK-293 cells expressing the ion channels of interest were plated in 384 well, black-walled, clear-bottomed, poly-D-lysine coated plates at a density of ˜20,000 cells/well in 20 μl of Minimal Essential Medium containing 10% (v/v) fetal bovine serum and incubated for 2 days at 29° C. in a 5% CO2 incubator. Prior to assay, cells were loaded with the Fluo-4 AM ester. Cell loading was accomplished by removing the culture medium and replacing it with 30 μl/well of the AM ester of the dye (5 μM) mixed with Hanks Balanced Salt Solution (#14175-095) containing 20 mM HEPES, 2.5 mM probenecid, 0.5 mM CaCl2, 1 mM MgCl2 and 10 μM atropine. Dye loading was allowed to proceed for 90 minutes at room temperature at which time the dye loading solution was removed and replaced with 40 μl/well of Hanks buffer. Cells loaded with dye were loaded onto a FLIPR384 (Molecular Devices, Sunnyvale, Calif.). Fluo-4 dye was excited using the 488 nm line of an argon laser. Emission was filtered using a 540+/−30 nm bandpass filter. […]

[3] = Table 4, Ca2+ flux, HEK-293 cells expressing the channel, read-out: FLIPR α7-HI (EC50)

T1 sequence (Q05941 23-502): as above

SMILES | EC50 [1, 3] [µM] | further results
Cc1ccc2c(C(=O)N3[C@@H]4C[C@H]5C[N@](CC[C@H]53)C4)n[nH]c2c1 [Example 49b, (2R,3aS,5S,7aR)-(6-methyl-1H-indazol-3-yl)(hexahydro-2,5-methanopyrrolo[3,2-c]pyridin-1(6H)-yl)methanone] | 0.047 | –
Cc1ccc2c(C(=O)N3[C@H]4C[C@@H]5C[N@@](CC[C@@H]53)C4)n[nH]c2c1 [Example 49a, (2S,3aR,5R,7aS)-(6-methyl-1H-indazol-3-yl)(hexahydro-2,5-methanopyrrolo[3,2-c]pyridin-1(6H)-yl)methanone] | 0.0031 | –
O=C(c1cc2cccc(Cl)c2s1)N1C2CC3CN(CCC31)C2 (stereo not drawn) [Example 35, ((2S*,3aR*,5R*,7aS*)-(7-chloro-benzo[b]thiophen-2-yl)(hexahydro-2,5-methanopyrrolo[3,2-c]pyridin-1(6H)-yl)methanone] | 5.6 | –
O=C(c1n[nH]c2ccc(Cl)cc12)N1C2CC3CN(CCC31)C2 (stereo not drawn) [Example 40, ((2S*,3aR*,5R*,7aS*)-(5-chloro-1H-indazol-3-yl)(hexahydro-2,5-methanopyrrolo[3,2-c]pyridin-1(6H)-yl)methanone] | 0.079 | –
O=C(c1n[nH]c2ccccc12)N1C2CC3CN(CCC31)C2 (stereo not drawn) [Example 34, ((2S*,3aR*,5R*,7aS*)-hexahydro-2,5-methanopyrrolo[3,2-c]pyridin-1(6H)-yl)(1H-indazol-3-yl)methanone] | 0.029 | –
O=C(c1n[nH]c2ccccc12)N1[C@@H]2C[C@H]3C[N@](CC[C@H]31)C2 [Example 34b, ((2R,3aS,5S,7aR)-hexahydro-2,5-methanopyrrolo[3,2-c]pyridin-1(6H)-yl)(1H-indazol-3-yl)methanone] | – | EC50 [1]: 0.25 µM
O=C(c1n[nH]c2c(Cl)cccc12)N1C2CC3CN(CCC31)C2 (stereo not drawn) [Example 45, ((2S*,3aR*,5R*,7aS*)-(7-chloro-1H-indazol-3-yl)(hexahydro-2,5-methanopyrrolo[3,2-c]pyridin-1(6H)-yl)methanone] | > 100 | –
Cn1nc(C(=O)N2C3CC4CN(CCC42)C3)c2ccccc21 (stereo not drawn) [Example 37, ((2S*,3aR*,5R*,7aS*)-(hexahydro-2,5-methanopyrrolo[3,2-c]pyridin-1(6H)-yl)(1-methyl-1H-indazol-3-yl)methanone] | > 100 | –
Cn1cc(C(=O)N2C3CC4CN(CCC42)C3)c2ccccc21 (stereo not drawn) [Example 39, ((2S*,3aR*,5R*,7aS*)-(hexahydro-2,5-methanopyrrolo[3,2-c]pyridin-1(6H)-yl)(1-methyl-1H-indol-3-yl)methanone] | > 100 | –
O=C(c1n[nH]c2cc(F)ccc12)N1C2CC3CN(CCC31)C2 (stereo not drawn) [Example 42, ((2S*,3aR*,5R*,7aS*)-(6-fluoro-1H-indazol-3-yl)(hexahydro-2,5-methanopyrrolo[3,2-c]pyridin-1(6H)-yl)methanone] | 0.054 | –
COc1cccc2[nH]nc(C(=O)N3C4CC5CN(CCC53)C4)c12 (stereo not drawn) [Example 48, ((2S*,3aR*,5R*,7aS*)-(4-methoxy-1H-indazol-3-yl)(hexahydro-2,5-methanopyrrolo[3,2-c]pyridin-1(6H)-yl)methanone] | 7.4 | –
O=C(c1n[nH]c2cc(Cl)ccc12)N1C2CC3CN(CCC31)C2 (stereo not drawn) [Example 46, ((2S*,3aR*,5R*,7aS*)-(6-chloro-1H-indazol-3-yl)(hexahydro-2,5-methanopyrrolo[3,2-c]pyridin-1(6H)-yl)methanone] | 0.01 | –
COc1ccc2[nH]nc(C(=O)N3C4CC5CN(CCC53)C4)c2c1 (stereo not drawn) [Example 41, ((2S*,3aR*,5R*,7aS*)-(5-methoxy-1H-indazol-3-yl)(hexahydro-2,5-methanopyrrolo[3,2-c]pyridin-1(6H)-yl)methanone] | > 100 | –
O=C(c1cc2ccccc2o1)N1C2CC3CCN(C2)CC31 (stereo not shown) [Example 5, Benzofuran-2-yl(hexahydro-2,6-methanopyrrolo[2,3-c]pyridin-1(2H)-yl)methanone] | – | EC50 ([2]; Table 1): > 100 µM
O=C(c1cc2ccccc2s1)N1C2CC3CCN(C2)CC31 (stereo not shown) [Example 6, Benzo[b]thiophen-2-yl(hexahydro-2,6-methanopyrrolo[2,3-c]pyridin-1(2H)-yl)methanone] | – | EC50 ([2]; Table 1): 51 µM
O=C(c1n[nH]c2ncccc12)N1[C@H]2C[C@@H]3CC[N@](C2)C[C@@H]31 [Example 24, ((2S,3aS,6R,7aR)-hexahydro-2,6-methanopyrrolo[2,3-c]pyridin-1(2H)-yl)(1H-pyrazolo[3,4-b]pyridin-3-yl)methanone] | – | EC50 ([2]; Table 2): 1.3 µM
O=C(c1n[nH]c2cc(F)ccc12)N1[C@H]2C[C@@H]3CC[N@](C2)C[C@@H]31 [Example 21, (6-fluoro-1H-indazol-3-yl)((2S,3aS,6R,7aR)-hexahydro-2,6-methanopyrrolo[2,3-c]pyridin-1(2H)-yl)methanone] | – | EC50 ([2]; Table 2): 0.08 µM
Cn1nc(C(=O)N2C3CC4CCN(C3)CC42)c2ccccc21 (stereo not shown) [Example 8, (Hexahydro-2,6-methanopyrrolo[2,3-c]pyridin-1(2H)-yl)(1-methyl-1H-indazol-3-yl)methanone] | – | EC50 ([2]; Table 1): > 100 µM
O=C(c1n[nH]c2cc(Cl)ccc12)N1[C@@H]2C[C@H]3CC[N@@](C2)C[C@H]31 [Example 16, (6-chloro-1H-indazol-3-yl)((2R,3aR,6S,7aS)-hexahydro-2,6-methanopyrrolo[2,3-c]pyridin-1(2H)-yl)methanone] | – | EC50 ([2]; Table 3): 0.086 µM

From US9796713B2, “Tricyclic compounds as alpha-7 nicotinic acetylcholine receptor ligands” (BRISTOL-MYERS SQUIBB COMPANY, priority 2014, dated 2017)
